Experimental findings from patent US11708348B2, “Protease inhibitors for treatment of coronavirus infections” (The Scripps Research Institute, priority 2021, dated 2023) are described below.

For the assay, the system named is SARS-CoV-2 strain USA-WA1/2020. The assay can be described thus: microbe, parasite or virus in culture. Type of assay: cell-based. The settings on record: Severe acute respiratory syndrome coronavirus 2, HeLa-ACE2, 24 h, HeLa-ACE2 cells, SARS-CoV-2 infection, 24 h; read-out: EC50, uM (Hela).
The term EC50 denotes the concentration giving half of the maximal effect. `O=C(Nc1ccccc1F)C(=O)N1CC[C@H]1C(=O)N[C@@H](C[C@@H]1CCNC1=O)C(=O)COC(F)(F)F` [Compound 583, (S)-1-(2-((2-fluoro-phenyl)amino)-2-oxoacetyl)-N-((S)-3-oxo-1-((S)-2-oxopyrrolidin-3-yl)-4-(trifluoromethoxy)butan-2-yl)azetidine-2-carboxamide]: the EC50 fell in the range of 0.05 to 0.2 µM.

Turning to `O=C(Nc1ccccc1F)C(=O)N1CCCCC[C@H]1C(=O)N[C@@H](C[C@@H]1CCNC1=O)C(=O)COC(F)(F)F` [Compound 584, (S)-1-(2-((2-fluorophenyl)amino)-2-oxoacetyl)-N-((S) -3-oxo-1-((S)-2-oxopyrrolidin-3-yl)-4-(trifluoromethoxy)butan-2-yl)azepane-2-carboxamide], the EC50 is below 0.05 µM.

For the compound `CC1(NC(=O)C(=O)N[C@@H](CC2CC2)C(=O)N[C@@H](C[C@@H]2CCNC2=O)C(=O)COC(F)(F)F)CC1` [Compound 585, N1-((S)-3-cyclopropyl-1-oxo-1-(((S)-3-oxo-1-((S)-2-oxopyrrolidin-3-yl)-4-(trifluoromethoxy)butan-2-yl)amino)propan-2-yl)-N2-(1-methylcyclo-propyl)oxalamide], the EC50 is below 0.05 µM.

`O=C(NC1CC1)C(=O)N[C@@H](CC1CC1)C(=O)N[C@@H](C[C@@H]1CCNC1=O)C(=O)COC(F)(F)F` [Compound 586, N1-cyclopropyl-N2-((S)-3-cyclopropyl-1-oxo-1-(((S)-3-oxo-1-((S)-2-oxopyrrolidin-3-yl)-4-(trifluoromethoxy)butan-2-yl)amino)propan-2-yl)oxalamide]: the EC50 is below 0.05 µM.

`O=C(NC1CC(F)(F)C1)C(=O)N1CC2(CC2)C[C@H]1C(=O)N[C@@H](C[C@@H]1CCNC1=O)C(=O)COC(F)(F)F` [Compound 588, (S)-5-(2-((3,3-difluorocyclobutyl)-amino)-2-oxoacetyl)-N-((S)-3-oxo-1-((S)-2-oxopyrrolidin-3-yl)-4-(trifluoromethoxy)butan-2-yl)-5-azaspiro[2.4]-heptane-6-carboxamide]: the EC50 fell in the range of 0.2 to 0.5 µM.

For `O=C(Nc1ccccc1F)C(=O)N[C@@H](Cc1ccc(F)c(F)c1)C(=O)N[C@@H](C[C@@H]1CCNC1=O)C(=O)COC(F)(F)F` [Compound 589, N1-((S)-3-(3,4-difluorophenyl)-1-oxo-1-(((S)-3-oxo-1-((S)-2-oxopyrrolidin-3-yl)-4-(trifluoromethoxy)butan-2-yl)amino)propan-2-yl)-N2-(2-fluorophenyl)oxalamide], the EC50 fell in the range of 0.05 to 0.2 µM.

Consider `CC(C)(NC(=O)C(=O)N1CC2(CC2)C[C@H]1C(=O)N[C@@H](C[C@@H]1CCNC1=O)C(=O)COC(F)(F)F)C(F)(F)F` [Compound 590, (S)-N-((S)-3-oxo-1-((S)-2-oxopyrrolidin-3-yl)-4-(trifluoromethoxy)butan-2-yl)-5-(2-oxo-2-((1,1,1-trifluoro-2-methylpropan-2-yl)amino)acetyl)-5-azaspiro[2.4]heptane-6-carboxamide], for which the EC50 was 0.05 to 0.2 µM.

With `O=C(Nc1ccc(Cl)cc1F)C(=O)N1CC2(CC2)C[C@H]1C(=O)N[C@@H](C[C@@H]1CCNC1=O)C(=O)COC(F)(F)F` [Compound 591, (S)-5-(2-((4-chloro-2-fluorophenyl)amino)-2-oxoacetyl)-N-((S)-3-oxo-1-((S)-2-oxopyrrolidin-3-yl)-4-(trifluoromethoxy)butan-2-yl)-5-azaspiro[2.4]-heptane-6-carboxamide], the EC50 is below 0.05 µM.

For the compound `CC(C)CC(C(=O)N[C@@H](C[C@@H]1CCNC1=O)C(=O)COC(F)(F)F)n1cc(C(=O)NC(C)(C)C)nn1` (stereo partly drawn) [Compound 592, N-(tert-butyl)-1-(4-methyl-1-oxo-1-(((S)-3-oxo-1-((S)-2-oxopyrrolidin-3-yl)-4-(trifluoromethoxy)butan-2-yl)amino)pentan-2-yl)-1H-1,2,3-triazole-4-carboxamide], the EC50 fell in the range of 0.05 to 0.2 µM.

As to `O=C1NCC[C@H]1C[C@H](NC(=O)[C@@H]1CC2(CC2)CN1C(=O)c1ncccc1F)C(=O)COC(F)(F)F` [Compound 593, (S)-5-(3-fluoropicolinoyl)-N-((S)-3-oxo-1-((S)-2-oxopyrrolidin-3-yl)-4-(trifluoromethoxy)butan-2-yl)-5-azaspiro[2.4]-heptane-6-carboxamide], the EC50 was in the range of 0.2 to 0.5 µM.

`CC1(C)[C@@H]2[C@@H](C(=O)N[C@@H](C[C@@H]3CCNC3=O)C(=O)COC(F)(F)F)N(C(=O)c3cc(F)cc(F)c3O)C[C@@H]21` [Compound 594, (1R,2S,5S)-3-(3,5-difluoro-2-hydroxybenzoyl)-6,6-dimethyl-N-((S)-3-oxo-1-((S)-2-oxopyrrolidin-3-yl)-4-(trifluoromethoxy)butan-2-yl)-3-azabicyclo-[3.1.0]hexane-2-carboxamide]: the EC50 lay within 0.05 to 0.2 µM.

In the case of `O=C1NCC[C@H]1C[C@H](NC(=O)[C@@H]1CC2(CC2)CN1C(=O)[C@H](CO)c1ccccc1)C(=O)COC(F)(F)F` [Compound 595, (S)-5-((S)-3-hydroxy-2-phenylpropanoyl)-N-((S)-3-oxo-1-((S)-2-oxopyrrolidin-3-yl)-4-(trifluoromethoxy)butan-2-yl)-5-azaspiro[2.4]-heptane-6-carboxamide], the EC50 lay within 0.05 to 0.2 µM.

On to `CC(C)C[C@H](NC(=O)C(=O)NC12CC(C(F)(F)F)(C1)C2)C(=O)N[C@@H](C[C@@H]1CCNC1=O)C(=O)COC(F)(F)F` [Compound 596, N1-((S)-4-methyl-1-oxo-1-(((S)-3-oxo-1-((S)-2-oxopyrrolidin-3-yl)-4-(trifluoromethoxy)butan-2-yl)amino)pentan-2-yl)-N2-(3-(trifluoromethyl)bi-cyclo[1.1.1]pentan-1-yl)oxalamide], for which the EC50 was below 0.05 µM.

`O=C(Nc1cccc(F)c1F)C(=O)N1CC2(CC2)C[C@H]1C(=O)N[C@@H](C[C@@H]1CCNC1=O)C(=O)COC(F)(F)F` [Compound 598, (S)-5-(2-((2,3-difluorophenyl)amino)-2-oxoacetyl)-N-((S)-3-oxo-1-((S)-2-oxopyrrolidin-3-yl)-4-(trifluoromethoxy)butan-2-yl)-5-azaspiro[2.4]heptane-6-carboxamide]: the EC50 was below 0.05 µM.

As to `COc1cccc(NC(=O)C(=O)N2CC3(CC3)C[C@H]2C(=O)N[C@@H](C[C@@H]2CCNC2=O)C(=O)COC(F)(F)F)c1F` [Compound 599, (S)-5-(2-((2-fluoro-3-methoxyphenyl)amino)-2-oxoacetyl)-N-((S)-3-oxo-1-((S)-2-oxopyrrolidin-3-yl)-4-(trifluoromethoxy)butan-2-yl)-5-azaspiro[2.4]heptane-6-carboxamide], the EC50 was below 0.05 µM.

Consider `O=C(Nc1cccc(OC(F)(F)F)c1F)C(=O)N1CC2(CC2)C[C@H]1C(=O)N[C@@H](C[C@@H]1CCNC1=O)C(=O)COC(F)(F)F` [Compound 600, (S)-5-(2-((2-fluoro-3-(trifluoromethoxy)-phenyl)amino)-2-oxoacetyl)-N-((S)-3-oxo-1-((S)-2-oxopyrrolidin-3-yl)-4-(trifluoromethoxy)-butan-2-yl)-5-azaspiro[2.4]heptane-6-carboxamide], for which the EC50 was below 0.05 µM.

Turning to `CC(C)(C)NC(=O)C(=O)N1C[C@@H]2C(F)CC[C@@H]2[C@H]1C(=O)N[C@@H](C[C@@H]1CCNC1=O)C(=O)COC(F)(F)F` (stereo partly drawn) [Compound 601, (1S,3aR,6aS)-2-(2-(tert-butylamino)-2-oxoacetyl)-4-fluoro-N-((S)-3-oxo-1-((S)-2-oxopyrrolidin-3-yl)-4-(trifluoromethoxy)butan-2-yl)octahydrocyclo-penta[c]pyrrole-1-carboxamide], the EC50 lay within 0.05 to 0.2 µM.

On to `O=C(Nc1cc(F)ccc1F)C(=O)N1CC2(CC2)C[C@H]1C(=O)N[C@@H](C[C@@H]1CCNC1=O)C(=O)COC(F)(F)F` [Compound 602, (S)-5-(2-((2,5-difluorophenyl)amino)-2-oxoacetyl)-N-((S)-3-oxo-1-((S)-2-oxopyrrolidin-3-yl)-4-(trifluoromethoxy)butan-2-yl)-5-azaspiro[2.4]heptane-6-carboxamide], for which the EC50 is below 0.05 µM.

Take `O=C(Nc1c(F)cccc1Cl)C(=O)N1CC2(CC2)C[C@H]1C(=O)N[C@@H](C[C@@H]1CCNC1=O)C(=O)COC(F)(F)F` [Compound 603, (S)-5-(2-((2-chloro-6-fluorophenyl)amino)-2-oxoacetyl)-N-((S)-3-oxo-1-((S)-2-oxo-pyrrolidin-3-yl)-4-(trifluoromethoxy)-butan-2-yl)-5-azaspiro[2.4]heptane-6-carboxamide]: the EC50 was in the range of 0.05 to 0.2 µM.

For `O=C1NCC[C@H]1C[C@@H](NC(=O)[C@@H]1[C@H]2CCC[C@H]2CN1C(=O)c1cc2cc(F)ccc2[nH]1)C(=O)COC(F)(F)F` [Compound 604, (1S,3aR,6aS)-2-(5-fluoro-1H-indole-2-carbonyl)-N-((R)-3-oxo-1-((S)-2-oxopyrrolidin-3-yl)-4-(trifluoromethoxy)butan-2-yl)octahydrocyclopenta[c]pyrrole-1-carboxamide], the EC50 was below 0.05 µM.

On to `COc1cccc2[nH]c(C(=O)N3CC4(CC4)C[C@H]3C(=O)N[C@@H](C[C@@H]3CCNC3=O)C(=O)COC(F)(F)F)cc12` [Compound 605, (S)-5-(4-methoxy-1H-indole-2-carbonyl)-N-((S)-3-oxo-1-((S)-2-oxopyrrolidin-3-yl)-4-(trifluorometh-oxy)butan-2-yl)-5-azaspiro[2.4]heptane-6-carboxamide], for which the EC50 is below 0.05 µM.

On to `O=C(Nc1ccccc1Cl)C(=O)N1CC2(CC2)C[C@H]1C(=O)N[C@@H](C[C@@H]1CCNC1=O)C(=O)COC(F)(F)F` [Compound 606, (S)-5-(2-((2-chlorophenyl)amino)-2-oxoacetyl)-N-((S)-3-oxo-1-((S)-2-oxopyrrolidin-3-yl)-4-(trifluoromethoxy)butan-2-yl)-5-azaspiro[2.4]heptane-6-carboxamide], for which the concentration giving a half-maximal response (EC50) was below 0.05 µM.

As to `O=C(Nc1cccc(Cl)c1)C(=O)N1CC2(CC2)C[C@H]1C(=O)N[C@@H](C[C@@H]1CCNC1=O)C(=O)COC(F)(F)F` [Compound 607, (S)-5-(2-((3-chlorophenyl)amino)-2-oxoacetyl)-N-((S)-3-oxo-1-((S)-2-oxopyrrolidin-3-yl)-4-(trifluoromethoxy)butan-2-yl)-5-azaspiro[2.4]heptane-6-carboxamide], the EC50 is below 0.05 µM.
